Experimental data published in PMC11310081, “Deep-learning-enabled antibiotic discovery through molecular de-extinction” (Nature Biomedical Engineering, 2024).
Values after ≈ are worked out from the molar mass of the structure shown. Peptide text beside a SMILES is read from it.

Experiments:
[1] = test system: HEK293T cells; conditions: 24 h
Summary of the method: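 5,000 cells/well seeded a day ahead in DMEM with 10% FBS, then treated with peptides; viability by MTT (0.5 mg/ml, 4 h, 37 °C), formazan in acidic isopropanol read at 570 nm. Concentration causing 50% lysis from non-linear regression; three biological replicates, two technical each.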

[2] = test system: K. pneumoniae ATCC 13883; format: cell-based, Klebsiella pneumoniae; conditions: ATCC 13883, 20 h
Text: (§1) The following Gram-negative bacteria were used in our study: A. baumannii ATCC 19606, E. coli ATCC 11775, E. coli AIC221 (E. coli MG1655 phnE_2::FRT), E. coli AIC222 (E. coli MG1655 pmrA53 phnE_2::FRT (colistin resistant)), K. pneumoniae ATCC 13883, P. aeruginosa PAO1 and P. aeruginosa PA14. The following Gram-positive bacteria were also used in our study: S. aureus ATCC 12600, S. aureus ATCC BAA-1556 (methicillin-resistant strain), E. faecalis ATCC 700802 (vancomycin-resistant strain) and E. faecium ATCC 700221 (vancomycin-resistant strain). Bacteria were grown from frozen stocks and plated on Luria–Bertani (LB) or Pseudomonas isolation agar plates (P. aeruginosa strains) and incubated overnight at 37 °C. After the incubation period, a single colony was transferred to 5 ml of LB medium, and cultures were incubated overnight (16 h) at 37 °C. The following day, an inoculum was prepared by diluting the overnight cultures 1:100 in 5 ml of the respective media and incubating them at 37 °C until bacteria reached logarithmic phase (OD600 = 0.3–0.5).
(§2) The in vitro antimicrobial activity of the peptides was assessed by using the broth microdilution assay. […] Aqueous solutions of the peptides were added to the plate at concentrations ranging from 1 to 64 μmol l^−1. […] The optical density of the plates was measured at 600 nm using a spectrophotometer. All assays were done as three biological replicates.

[3] = test system: A. baumannii ATCC 19606; format: cell-based, Acinetobacter baumannii; conditions: ATCC 19606, 20 h
Text: as §1, §2

[4] = test system: 11 clinically relevant bacterial pathogens; format: cell-based; conditions: for Active or Inactive: Supplementary Dataset 2, against the 11 pathogens tested
Summary of the method: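 Strains, plated on LB or Pseudomonas isolation agar, were subcultured 1:100 and grown at 37 °C into logarithmic phase before peptide dilutions (1–64 μmol l^−1) were applied. Absorbance at 600 nm gave growth; three biological replicates.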

[5] = test system: E. coli ATCC 11775; format: cell-based, Escherichia coli; conditions: ATCC 11775, 20 h
Text: as §1, §2

[6] = test system: E. coli AIC221; format: cell-based, Escherichia coli; conditions: AIC221, 20 h
Text: as §1, §2

[7] = test system: E. faecium ATCC 700221 (vancomycin-resistant strain); format: cell-based, Enterococcus faecium; conditions: ATCC 700221, 20 h
Text: as §1, §2

[8] = test system: S. aureus ATCC 12600; format: cell-based, Staphylococcus aureus; conditions: ATCC 12600, 20 h
Text: as §1, §2

[9] = test system: S. aureus ATCC BAA-1556 (methicillin-resistant strain); format: cell-based, Staphylococcus aureus; conditions: ATCC BAA-1556, 20 h
Text: as §1, §2

[10] = test system: A. baumannii ATCC 19606; test: Cytoplasmic membrane depolarization assay (DiSC3-5); format: cell-based, Acinetobacter baumannii; conditions: DiSC3-5 fluorescence, peptide at its MIC, polymyxin B as positive control; three replicates
Description: The depolarization of the bacterial cytoplasmic membrane was determined by fluorescence measurements of the membrane potential-sensitive dye, DiSC3-5 (ref. [16]). Briefly, A. baumannii ATCC 19606 and P. aeruginosa PAO1 were grown at 37 °C until mid-log phase (OD600 = 0.5). The cells were then centrifuged using the same conditions described for the NPN uptake assays, washed twice with washing buffer containing 20 mmol l^−1 glucose and 5 mmol l^−1 HEPES (pH 7.2). The cells were diluted 1:10 (OD600 = 0.05) in a buffer containing 0.1 mol l^−1 KCl, 20 mmol l^−1 glucose and 5 mmol l^−1 HEPES (pH 7.2). About 100 μl of bacterial solution was then incubated for 15 min with 20 nmol l^−1 of DiSC3-5 until the fluorescence reached a plateau, that is, the dye was fully internalized into the bacterial membrane. Transmembrane potential changes were monitored by observing the difference in the fluorescence emission intensity of DiSC3-5 (λex = 622 nm, λem = 670 nm), after the addition of 100 μl of peptide aqueous solution at its MIC. All assays were performed in three biological replicates. The relative fluorescence values were calculated for the course of the experiment using non-linear fitting, and the untreated control (buffer + bacteria + fluorescent dye) served as baseline. The following equation was applied to show the percentage difference between the fluorescence of the untreated control (baseline) and the sample: Percentagedifference=100×(fluorescencesample−baseline)/baseline

[11] = test system: P. aeruginosa PAO1; format: cell-based, Pseudomonas aeruginosa; conditions: PAO1, 20 h
Text: as §1, §2

[12] = test system: P. aeruginosa PA14; format: cell-based, Pseudomonas aeruginosa; conditions: PA14, 20 h
Text: as §1, §2

SMILES	CC50 [1] [µM]	Minimal inhibitory concentration, K. pneumoniae ATCC133883 [2] [µM]	Minimal inhibitory concentration, A. baumannii ATCC19606 [3] [µM]	Active or Inactive [4]	Minimal inhibitory concentration, E. coli ATCC11775 [5] [µM]	Minimal inhibitory concentration, E. coli AIC221 [6] [µM]	Minimal inhibitory concentration, E. faecium ATCC700221-VRE [7] [µM]	Minimal inhibitory concentration, S. aureus ATCC12600 [8] [µM]	Minimal inhibitory concentration, S. aureus ATCC BAA-1556-MRSA [9] [µM]	TI (therapeutic index) [1]	Cytoplasmic membrane depolarization, in words [10]	Minimal inhibitory concentration, P. aeruginosa PAO1 [11] [µM]	Minimal inhibitory concentration, P. aeruginosa PA14 [12] [µM]	MIC (lowest MIC value in the antimicrobial activity assays) ([4]; Supplementary Table 17, lowest MIC among the strains tested) [µM]
CC[C@H](C)[C@H](N)C(=O)N[C@@H](CO)C(=O)N[C@@H](CC(C)C)C(=O)N[C@@H](Cc1ccccc1)C(=O)N[C@H](C(=O)N[C@@H](CCCNC(=N)N)C(=O)N1CCC[C@H]1C(=O)N[C@@H](CC(C)C)C(=O)N[C@@H](C)C(=O)N[C@@H](CC(C)C)C(=O)NCC(=O)N[C@H](C(=O)N[C@@H](CCCNC(=N)N)C(=O)N[C@@H](CC(C)C)C(=O)O)C(C)C)[C@@H](C)CC [Psephotellin-1] (H-ISLFIRPLALGVRL-OH; N-terminus and C-terminus assumed)	> 128	32 (≈ 50.2 µg/mL)	32 (≈ 50.2 µg/mL)	Active	16 (≈ 25.1 µg/mL)	16 (≈ 25.1 µg/mL)	–	–	–	–	–	–	–	–
CC[C@H](C)[C@H](NC(=O)[C@H](CO)NC(=O)CNC(=O)[C@H](CC(C)C)NC(=O)[C@H](CC(C)C)NC(=O)[C@H](CC(C)C)NC(=O)[C@H](CCCNC(=N)N)NC(=O)[C@H](CCCCN)NC(=O)[C@@H](NC(=O)[C@H](CO)NC(=O)[C@H](CC(N)=O)NC(=O)[C@@H](NC(=O)[C@H](CC(C)C)NC(=O)[C@@H](N)CC(C)C)[C@@H](C)CC)[C@@H](C)CC)C(=O)N[C@@H](CC(C)C)C(=O)O [Arctodutin-1] (H-LLINSIKRLLLGSIL-OH; N-terminus and C-terminus assumed)	> 128	–	8 (≈ 13.3 µg/mL)	Active	–	–	2 (≈ 3.33 µg/mL)	8 (≈ 13.3 µg/mL)	8 (≈ 13.3 µg/mL)	–	–	–	–	–
CC[C@H](C)[C@H](NC(=O)[C@H](CCCCN)NC(=O)[C@@H](N)CCCNC(=N)N)C(=O)N[C@@H](CC(C)C)C(=O)NCC(=O)N[C@@H](CC(=O)O)C(=O)N[C@@H](CC(C)C)C(=O)N[C@@H](CCCCN)C(=O)N[C@@H](Cc1ccccc1)C(=O)N[C@@H](CC(C)C)C(=O)N[C@@H](CCC(=O)O)C(=O)N[C@@H](CO)C(=O)N[C@@H](CC(C)C)C(=O)N[C@@H](CCCCN)C(=O)N[C@H](C(=O)N[C@@H](Cc1ccc(O)cc1)C(=O)O)[C@@H](C)O [Anomalopterin-1] (H-RKILGDLKFLESLKTY-OH; N-terminus and C-terminus assumed)	> 128	–	64 (≈ 123 µg/mL)	Active	–	–	–	–	–	> 2	most potent depolarization effects	–	–	–
CC[C@H](C)[C@H](NC(=O)CNC(=O)[C@H](Cc1c[nH]cn1)NC(=O)[C@H](CC(N)=O)NC(=O)[C@H](CCCCN)NC(=O)[C@H](CCC(N)=O)NC(=O)[C@@H](N)CCCNC(=N)N)C(=O)N[C@@H](Cc1c[nH]cn1)C(=O)N[C@@H](Cc1ccccc1)C(=O)N[C@@H](CCCNC(=N)N)C(=O)N[C@H](C(=O)N[C@@H](CC(C)C)C(=O)N[C@@H](C)C(=O)N[C@@H](CCCCN)C(=O)N[C@@H](C)C(=O)N[C@@H](CC(C)C)C(=O)N[C@@H](CCCNC(=N)N)C(=O)O)C(C)C [Hesperelin-3] (H-RQKNHGIHFRVLAKALR-OH; N-terminus and C-terminus assumed)	–	–	–	Active	–	–	–	–	–	–	most potent depolarization effects	–	–	–
CC(C)C[C@H](NC(=O)[C@H](CC(C)C)NC(=O)[C@@H](NC(=O)[C@H](CCCNC(=N)N)NC(=O)[C@H](C)NC(=O)[C@H](Cc1ccccc1)NC(=O)[C@H](CCCNC(=N)N)NC(=O)[C@H](CO)NC(=O)[C@H](Cc1c[nH]c2ccccc12)NC(=O)[C@H](CCCNC(=N)N)NC(=O)[C@H](CC(C)C)NC(=O)[C@H](CCCCN)NC(=O)[C@H](CC(C)C)NC(=O)[C@@H](N)Cc1ccccc1)C(C)C)C(=O)O [Equusin-1] (H-FLKLRWSRFARVLL-OH; N-terminus and C-terminus assumed)	> 128	16 (≈ 28.9 µg/mL)	–	Active	–	4 (≈ 7.22 µg/mL)	1 (≈ 1.81 µg/mL)	–	16 (≈ 28.9 µg/mL)	–	–	16 (≈ 28.9 µg/mL)	4 (≈ 7.22 µg/mL)	1 (≈ 1.81 µg/mL)
CC[C@H](C)[C@H](NC(=O)[C@H](Cc1ccc(O)cc1)NC(=O)[C@H](C)NC(=O)[C@@H](N)CCCNC(=N)N)C(=O)N[C@@H](CS)C(=O)N[C@@H](CCCNC(=N)N)C(=O)N[C@@H](CCCCN)C(=O)N[C@@H](CCCCN)C(=O)N[C@@H](Cc1ccccc1)C(=O)N[C@@H](CC(C)C)C(=O)N[C@@H](CO)C(=O)N[C@@H](CC(C)C)C(=O)N[C@@H](CCCNC(=N)N)C(=O)N[C@@H](CCCCN)C(=O)N[C@@H](C)C(=O)N[C@@H](CO)C(=O)N[C@H](C(=O)N[C@@H](CCCCN)C(=O)N[C@@H](CC(C)C)C(=O)N[C@@H](CCC(N)=O)C(=O)N[C@@H](CO)C(=O)N[C@@H](CC(C)C)C(=O)N[C@H](C(=O)N[C@@H](CCCNC(=N)N)C(=O)N[C@@H](CCSC)C(=O)N[C@@H](CCCCN)C(=O)O)C(C)C)[C@@H](C)CC [Equusin-2] (H-RAYICRKKFLSLRKASIKLQSLVRMK-OH; N-terminus and C-terminus assumed)	> 128	–	8 (≈ 25.1 µg/mL)	Active	–	16 (≈ 50.2 µg/mL)	–	–	–	> 16	most potent depolarization effects	–	–	–
CC[C@H](C)[C@H](NC(=O)[C@H](CCCCN)NC(=O)[C@H](CCCCN)NC(=O)[C@H](Cc1ccccc1)NC(=O)[C@H](Cc1ccccc1)NC(=O)[C@@H](NC(=O)[C@@H](NC(=O)[C@H](CO)NC(=O)[C@H](CCCCN)NC(=O)[C@@H](NC(=O)[C@@H](NC(=O)[C@H](Cc1c[nH]c2ccccc12)NC(=O)[C@H](CCCCN)NC(=O)[C@H](CCCCN)NC(=O)[C@@H](NC(=O)[C@H](CCC(=O)O)NC(=O)[C@H](CCCCN)NC(=O)[C@H](CC(C)C)NC(=O)[C@@H](NC(=O)[C@H](CCCCN)NC(=O)[C@H](CCCNC(=N)N)NC(=O)[C@H](CC(C)C)NC(=O)[C@H](CC(C)C)NC(=O)[C@@H](N)CCCCN)C(C)C)[C@@H](C)O)C(C)C)[C@@H](C)CC)C(C)C)C(C)C)C(=O)N[C@@H](CCCNC(=N)N)C(=O)N[C@@H](CCCCN)C(=O)O [Hesperelin-1] (H-KLLRKVLKETKKWVIKSVVFFKKIRK-OH; N-terminus and C-terminus assumed)	> 128	–	4 (≈ 13 µg/mL)	Active	–	8 (≈ 26 µg/mL)	2 (≈ 6.49 µg/mL)	–	–	–	–	8 (≈ 26 µg/mL)	16 (≈ 51.9 µg/mL)	–
